In patent publication US20060178415A1, “Azole derivatives as antifungal agents” (priority 2002, published 2006):
In brackets after ≈: the same amount, converted by molar mass. Like-named read-outs stand apart in the source and are kept apart here.

Test system: A. fum.
Assay: In vitro antifungal MIC, NCCLS M38P broth method in RPMI 1640/MOPS pH 7
Assay type: cell-based, Aspergillus fumigatus
Settings: for MIC: Aspergillus fumigatus
From the text: The in vitro evaluation of the antifungal activity of the compound of this invention (as shown in Table I) can be performed by determining the minimum inhibitory concentration (MIC) which is the concentration of the test compound in Rosewell Park Memorial Institute (RPMI) 1640 liquid medium buffered with 3-(Morpholino)propane sulfonic acid (MOPS) to pH 7, at which there is significant inhibition of the particular fungi. In practice the National Committee for Clinical Laboratory Standard (NCCLS) M27A document for Candida and Cryptococcus and M38P for Aspergillus was used to determine the MIC and readings recorded only when the Quality Control results fell into the acceptable range. After MIC results had been recorded, 100 μL from each of the well showing no growth was spread over Sabouraud Dextrose Agar (SDA) to determine the minimum fungicidal concentration (MFC).

[1] = A. fumigatus strain 1008, RPMI 1640, MOPS pH 7
[2] = A. fumigatus strain Si-l, RPMI 1640, MOPS pH 7
[3] = A. fumigatus strain 1008, RPMI 1640, MOPS pH 7, read-out: MIC (A. fum.) 1008
[4] = A. fumigatus strain Si-l, RPMI 1640, MOPS pH 7, read-out: MIC (A. fum.) Si-l
[5] = pH 7, read-out: MIC (A. fum.) 1008
[6] = pH 7, read-out: MIC (A. fum.) Si-l

With “1-t-Butoxycarbonyl-2-[(1R,2R)-2-(2,4-difluorophenyl)-2-hydroxy-1-methyl-3-(1H-1,2,4-triazol-1-yl)propyl]-4-[4-[4-chlorophenyl]piperizin-1-yl]phenyl]thiosemicarbazide [Compound No. 12]” the “MIC (A. fum.) 1008” value [1] was 0.25 µg/mL and the “MIC (A. fum.) Si-l” value [2] was 0.25 µg/mL.
Work on `C[C@@H](N(NC(=O)OC(C)(C)C)C(=S)Nc1ccc(F)cc1)[C@](O)(Cn1cncn1)c1ccc(F)cc1F` [Compound No. 1] yielded an MIC [3] greater than 16 µg/mL and an MIC [4] greater than 16 µg/mL.
Work on `C[C@@H](N(NC(=O)OC(C)(C)C)C(=S)Nc1ccc(F)cc1F)[C@](O)(Cn1cncn1)c1ccc(F)cc1F` [Compound No. 2, 1-t-Butoxycarbonyl-2-[(1R,2R)-2-(2,4-difluorophenyl)-2-hydroxy-1-methyl-3-(1H-1,2,4-triazol-1-yl)propyl]-4-[2,4-difluorophenyl]thiosemicarbazide] yielded an MIC [3] greater than 16 µg/mL and an MIC [4] greater than 16 µg/mL.
In the case of `COc1ccc(NC(=S)N(NC(=O)OC(C)(C)C)[C@H](C)[C@](O)(Cn2cncn2)c2ccc(F)cc2F)c(OC)c1` [Compound No. 4, 1-t-Butoxycarbonyl-2-[(1R,2R)-2-(2,4-difluorophenyl)-2-hydroxy-1-methyl-3-(1H-1,2,4-triazol-1-yl)propyl]-4-[2,4-dimethoxyphenyl]thiosemicarbazide], the MIC [3] is reported as greater than 16 µg/mL and the MIC [4] is reported as greater than 16 µg/mL.
`C[C@@H](N(NC(=O)OC(C)(C)C)C(=S)Nc1ccc(OC2CCCCO2)cc1)[C@](O)(Cn1cncn1)c1ccc(F)cc1F` (stereo partly drawn) [Compound No. 5, 1-t-Butoxycarbonyl-2-[(1R,2R)-2-(2,4-difluorophenyl)-2-hydroxy-1-methyl-3-(1H-1,2,4-triazol-1-yl)propyl]-4-[4-(tetrahydropyranyloxy)phenyl]thiosemicarbazide] was tested, and the MIC [3] was greater than 16 µg/mL and the MIC [4] was greater than 16 µg/mL.
Work on `C[C@@H](N(NC(=O)OC(C)(C)C)C(=S)Nc1ccc(OC(F)(F)F)cc1)[C@](O)(Cn1cncn1)c1ccc(F)cc1F` [Compound No. 6, 1-t-Butoxycarbonyl-2-[(1R,2R)-2-(2,4-difluorophenyl)-2-hydroxy-1-methyl-3-(1H-1,2,4-triazol-1-yl)propyl]-4-[4-trifluoromethoxyphenyl]thiosemicarbazide] yielded an MIC [3] of 8 µg/mL (≈ 13.3 µM) and an MIC [4] of 8 µg/mL (≈ 13.3 µM).
`C[C@@H](N(NC(=O)OC(C)(C)C)C(=S)Nc1ccc(OCC(F)(F)C(F)F)cc1)[C@](O)(Cn1cncn1)c1ccc(F)cc1F` [Compound No. 7, 1-t-Butoxycarbonyl-2-[(1R,2R)-2-(2,4-difluorophenyl)-2-hydroxy-1-methyl-3-(1H-1,2,4-triazol-1-yl)propyl]-4-[4-(2,2,3,3-tetrafluoropropoxy)phenyl]thiosemicarbazide] gave an MIC [3] of 4 µg/mL (≈ 6.17 µM) and an MIC [4] of 4 µg/mL (≈ 6.17 µM).
For `C[C@@H](N(NC(=O)OC(C)(C)C)C(=S)Nc1ccc([N+](=O)[O-])cc1)[C@](O)(Cn1cncn1)c1ccc(F)cc1F` [Compound No. 8, 1-t-Butoxycarbonyl-2-[(1R,2R)-2-(2,4difluorophenyl)-2-hydroxy-1-methyl-3-(1H-1,2,4-triazol-1-yl)propyl]-4-[4-nitrophenyl]thiosemicarbazide], the MIC [5] was greater than 16 µg/mL and the MIC [6] was greater than 16 µg/mL.
Work on `C[C@@H](N(NC(=O)OC(C)(C)C)C(=S)Nc1ccc(-n2cnnn2)cc1)[C@](O)(Cn1cncn1)c1ccc(F)cc1F` [Compound No. 9, 1-t-Butoxycarbonyl-2-[(1R,2R)-2-(2,4-difluorophenyl)-2-hydroxy-1-methyl-3-(1H-1,2,4-triazol-1-yl)propyl]-4-[4-([1,2,3,4-tetrazol-1-yl])phenyl]thiosemicarbazide] yielded an MIC [3] greater than 16 µg/mL and an MIC [4] greater than 16 µg/mL.
With `C[C@@H](N(NC(=O)OC(C)(C)C)C(=S)Nc1ccc(-n2ncnn2)cc1)[C@](O)(Cn1cncn1)c1ccc(F)cc1F` [Compound No. 10, 1-t-Butoxycarbonyl-2-[(1R,2R)-2-(2,4-difluorophenyl)-2-hydroxy-1-methyl-3-(1H-1,2,4-triazol-1-yl)propyl]-4-[4-(1,2,3,4-tetrazol-2-yl)phenyl]thiosemicarbazide] the MIC [3] was greater than 16 µg/mL and the MIC [4] was greater than 16 µg/mL.
With `C[C@@H](N(NC(=O)OC(C)(C)C)C(=S)Nc1cccc2ccccc12)[C@](O)(Cn1cncn1)c1ccc(F)cc1F` [Compound No. 14] the “MIC (A. fum.) 1008” value [1] was greater than 16 µg/mL and the “MIC (A. fum.) Si-l” value [2] was greater than 16 µg/mL.
For `CCCCCCCCNC(=S)N(NC(=O)OC(C)(C)C)[C@H](C)[C@](O)(Cn1cncn1)c1ccc(F)cc1F` [Compound No. 15], the “MIC (A. fum.) 1008” value [1] was greater than 16 µg/mL and the “MIC (A. fum.) Si-l” value [2] was greater than 16 µg/mL.
In the case of `C[C@@H](N(NC(=O)OC(C)(C)C)C(=O)Nc1ccc(Cl)cc1)[C@](O)(Cn1cncn1)c1ccc(F)cc1F` [Compound No. 25, 1-t-Butoxycarbonyl-2-[(1R,2R)-2-(2,4-difluorophenyl)-2-hydroxy-1-methyl-3-(1H-1,2,4-triazol-1-yl)propyl]-4-[4-chlorophenyl]semicarbazide], the MIC [5] is reported as greater than 16 µg/mL and the MIC [6] is reported as greater than 16 µg/mL.
`C[C@@H](N(NC(=O)OC(C)(C)C)C(=O)Nc1ccc(OCC(F)(F)C(F)F)cc1)[C@](O)(Cn1cncn1)c1ccc(F)cc1F` [Compound No. 26, 1-t-Butoxycarbonyl-2-[(1R,2R)-2-(2,4-difluorophenyl)-2-hydroxy-1-methyl-3-(1H-1,2,4-triazol-1-yl)propyl]-4-[4(2,2,3,3-tetrafluoropropoxy)phenyl]semicarbazide] was tested, and the MIC [3] was greater than 16 µg/mL and the MIC [4] was greater than 16 µg/mL.
With `COc1ccc(NC(=O)N(NC(=O)OC(C)(C)C)[C@H](C)[C@](O)(Cn2cncn2)c2ccc(F)cc2F)c(OC)c1` [Compound No. 27, 1-t-Butoxycarbonyl-2-[(1R,2R)-2-(2,4-difluorophenyl)-2-hydroxy-1-methyl-3-(1H-1,2,4-triazol-1-yl)propyl]-4-[2,4-dimethoxyphenyl]semicarbazide] the MIC [3] was greater than 16 µg/mL and the MIC [4] was greater than 16 µg/mL.
With `C[C@@H](N(N)C(=O)Nc1ccc(Cl)cc1)[C@](O)(Cn1cncn1)c1ccc(F)cc1F` [Compound No. 28, 2-[(1R,2R)-2-(2,4-difluorophenyl)-2-hydroxy-1-methyl-3-(1H-1,2,4-triazol-1-yl)propyl]-4-[4-chlorophenyl]semicarbazide] the MIC [5] was greater than 16 µg/mL and the MIC [6] was greater than 16 µg/mL.
`C[C@@H](N(N)C(=S)Nc1ccccc1)[C@](O)(Cn1cncn1)c1ccc(F)cc1F` [Compound No. 29, 2-[(1R,2R)-2-(2,4-difluorophenyl)-2-hydroxy-1-methyl-3-(1H-1,2,4-triazol-1-yl)propyl]-4-phenyl thiosemicarbazide] gave an MIC [3] greater than 16 µg/mL and an MIC [4] greater than 16 µg/mL.
`C[C@@H](N(N)C(=S)Nc1ccc(O)cc1)[C@](O)(Cn1cncn1)c1ccc(F)cc1F` [Compound No. 30, 2-[(1R,2R)-2-(2,4-difluorophenyl)-2-hydroxy-1-methyl-3-(1H-1,2,4-triazol-1-yl)propyl]-4-[4-hydroxyphenyl]thiosemicarbazide] was tested, and the MIC [5] was greater than 16 µg/mL and the MIC [6] was greater than 16 µg/mL.
`C[C@@H](N(N)C(=S)Nc1ccc(OCC(F)(F)C(F)F)cc1)[C@](O)(Cn1cncn1)c1ccc(F)cc1F` [Compound No. 31, 2-[(1R,2R)-2-(2,4-difluorophenyl)-2-hydroxy-1-methyl-3-(1H-1,2,4-triazol-1-yl)propyl]-4-[4-(2,2,3,3-tetrafluoropropoxy)phenyl]thiosemicarbazide] gave an MIC [3] of 1 µg/mL (≈ 1.82 µM) and an MIC [4] of 0.25 µg/mL (≈ 0.456 µM).
In the case of `COc1ccc(NC(=S)N(N)[C@H](C)[C@](O)(Cn2cncn2)c2ccc(F)cc2F)c(OC)c1` [Compound No. 32, 2-[(1R,2R)-2-(2,4-difluorophenyl)-2-hydroxy-1-methyl-3-(1H-1,2,4-triazol-1-yl)propyl]-4-[2,4-dimethoxyphenyl]thiosemicarbazide], the MIC [3] is reported as greater than 16 µg/mL and the MIC [4] is reported as greater than 16 µg/mL.
Molecule `C[C@@H](N(N)C(=S)Nc1ccc(C(F)(F)F)cc1)[C@](O)(Cn1cncn1)c1ccc(F)cc1F` [Compound No. 33, 2-[(1R,2R)-2-(2,4-difluorophenyl)-2-hydroxy-1-methyl-3-(1H-1,2,4-triazol-1-yl)propyl]-4-[4-trifluoromethylphenyl]thiosemicarbazide] has an MIC [3] of 4 µg/mL (≈ 8.22 µM) and an MIC [4] of 2 µg/mL (≈ 4.11 µM).
Work on `C[C@@H](N(N)C(=S)Nc1ccc(OC(F)(F)F)cc1)[C@](O)(Cn1cncn1)c1ccc(F)cc1F` [Compound No. 34, 2-[(1R,2R)-2-(2,4-Difluorophenyl)-2-hydroxy-1-methyl-3-(1H-1,2,4-triazol-1-yl)propyl]-4-[4-trifluoromethoxyphenyl]thiosemicarbazide] yielded an MIC [3] of 2 µg/mL (≈ 3.98 µM) and an MIC [4] of 2 µg/mL (≈ 3.98 µM).
For `C[C@@H](N(N)C(=S)NCc1ccco1)[C@](O)(Cn1cncn1)c1ccc(F)cc1F` [Compound No. 35, 2-[(1R,2R)-2-(2,4-difluorophenyl)-2-hydroxy-1-methyl-3-(1H-1,2,4-triazol-1-yl)propyl]-4-[2-furanmethyl]thiosemicarbazide], the “MIC (A. fum.) 1008” value [1] was 4 µg/mL (≈ 9.47 µM) and the “MIC (A. fum.) Si-l” value [2] was 4 µg/mL (≈ 9.47 µM).
For `C[C@@H](N(N)C(=S)NCc1cccs1)[C@](O)(Cn1cncn1)c1ccc(F)cc1F` [Compound No. 36, 2-[(1R,2R)-2-(2,4-difluorophenyl)-2-hydroxy-1-methyl-3-(1H-1,2,4-triazol-1-yl)propyl]-4-[2-thiophenmethyl]thiosemicarbazide], the “MIC (A. fum.) 1008” value [1] was 4 µg/mL (≈ 9.12 µM) and the “MIC (A. fum.) Si-l” value [2] was 2 µg/mL (≈ 4.56 µM).
`C[C@@H](N(N)C(=S)Nc1ccc(Cl)cn1)[C@](O)(Cn1cncn1)c1ccc(F)cc1F` [Compound No. 37, 2-[(1R,2R)-2-(2,4-Difluorophenyl)-2-hydroxy-1-methyl-3-(1H-1,2,4-triazol-1-yl)propyl]-4-[3-chloropyridin-6-yl]thiosemicarbazide] was tested, and the MIC [3] was 0.5 µg/mL (≈ 1.1 µM) and the MIC [4] was 1 µg/mL (≈ 2.2 µM).
